Experimental data from patent publication US8785439B2, “2,5,7-substituted oxazolopyrimidine derivatives” (Sanofi, priority 2010, dated 2014).

Molecular target: T1, human Edg-1 receptor (Homo sapiens, UniProt P21453)
T1 construct: FLAG (N); expressed in transfected cells; membrane preparation
Assay: GTP-γ-S assay using human Edg-1 receptors (SPA, CHO Flp-In cell membrane preparation)
Type: biochemical
Conditions: test compound at 10 μM; high control 10 μM S1P regarded as 100% activation; background-corrected; triplicate
In short: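 Membranes from CHO Flp-In cells stably overexpressing N-terminally FLAG-tagged human Edg-1 were used in a scintillation-proximity GTP-γ-S binding assay to measure receptor activation by compounds.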

T1 sequence (P21453 whole entry): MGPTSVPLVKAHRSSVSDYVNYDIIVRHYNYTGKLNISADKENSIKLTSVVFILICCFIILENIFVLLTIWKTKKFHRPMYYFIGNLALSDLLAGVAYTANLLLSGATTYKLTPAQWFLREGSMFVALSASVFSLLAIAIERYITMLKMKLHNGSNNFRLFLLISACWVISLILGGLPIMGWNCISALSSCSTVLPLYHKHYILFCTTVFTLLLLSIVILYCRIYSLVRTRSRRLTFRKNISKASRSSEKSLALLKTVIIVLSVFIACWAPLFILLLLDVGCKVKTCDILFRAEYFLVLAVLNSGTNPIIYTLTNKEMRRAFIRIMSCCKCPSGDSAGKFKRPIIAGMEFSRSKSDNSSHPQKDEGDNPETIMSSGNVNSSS

| % Activation (Edg-1 receptor activation in percent of the activation by 10 μM S1P) | Molecule |
| --- | --- |
| 108% | 5-(2-fluoro-phenoxy)-2-(1-oxy-pyridin-3-yl)-7-propoxy-oxazolo[5,4-d]pyrimidine [Example 109] |

Same assay, conditions: test compound at 10 μM; high control 10 μM S1P regarded as 100% activation; background-corrected; triplicate; read-out: % Activation (Edg-1 receptor activation in percent of the activation by 10 μM S1P)

| Molecule | activation at 10 µM |
| --- | --- |
| CCCOc1nc(Oc2ccccc2F)nc2oc(-c3cc(C)c(O)c(C)c3)nc12 [Example 6, 5-(2-Fluoro-phenoxy)-2-(4-hydroxy-3,5-dimethyl-phenyl)-7-propoxy-oxazolo[5,4-d]pyrimidine] | 105% |
| CCCOc1nc(Oc2ccc(=O)n(C)n2)nc2oc(-c3cccc(C)c3)nc12 [Example 56, 2-methyl-6-(7-propoxy-2-(3-methyl-phenyl)-oxazolo[5,4-d]pyrimidin-5-yloxy)-2H-pyridazin-3-one] | 97% |
| CCOc1nc(Oc2ccccc2F)nc2oc(-c3ccc[n+]([O-])c3)nc12 [Example 7, 7-Ethoxy-5-(2-fluoro-phenoxy)-2-(1-oxy-pyridin-3-yl)-oxazolo[5,4-d]pyrimidine] | 116% |
| CCCOc1nc(Oc2cccnc2)nc2oc(-c3cccc(OC)c3)nc12 [Example 41, 2-(3-methoxy-phenyl)-7-propoxy-5-(pyridin-3-yloxy)-oxazolo[5,4-d]pyrimidine] | 102% |

Next, values leading:

| activation at 10 µM | Molecule |
| --- | --- |
| 70% | CCCOc1nc(Oc2cccc(SC(F)(F)F)c2)nc2oc(-c3cccc(C)c3)nc12 [Example 116, 7-propoxy-2-(3-methyl-phenyl)-5-(3-trifluoromethylsulfanyl-phenoxy)-oxazolo[5,4-d]pyrimidine] |
| 60% | CCCOc1nc(Oc2cccc3c2OC(C)(C)C3)nc2oc(-c3cc(F)ccc3Cl)nc12 [Example 84, 2-(2-chloro-5-fluoro-phenyl)-5-(2,2-dimethyl-2,3-dihydro-benzofuran-7-yloxy)-7-propoxy-oxazolo[5,4-d]pyrimidine] |
| 91% | CCCOc1nc(Oc2ccc(OC)c(OC)c2)nc2oc(-c3cccc(C)c3)nc12 [Example 136, 5-(3,4-dimethoxy-phenoxy)-7-propoxy-2-(3-methyl-phenyl)-oxazolo[5,4-d]pyrimidine] |
